The results in this text go back to article PMC12586182 (Frontiers in Oncology, 2025).

Common to all, as to test: Kinase panel profiling at 1 µmol/L (mobility shift assay, Carna)
Type in all cases: biochemical
Conditions in all cases: 1 µmol/L of BTK inhibitor

Experiment [1] concerns the target T1, EPHB1 (Homo sapiens, UniProt P54762).
T1 construct: purchased Carna Biosciences
T1 sequence (P54762 18-984): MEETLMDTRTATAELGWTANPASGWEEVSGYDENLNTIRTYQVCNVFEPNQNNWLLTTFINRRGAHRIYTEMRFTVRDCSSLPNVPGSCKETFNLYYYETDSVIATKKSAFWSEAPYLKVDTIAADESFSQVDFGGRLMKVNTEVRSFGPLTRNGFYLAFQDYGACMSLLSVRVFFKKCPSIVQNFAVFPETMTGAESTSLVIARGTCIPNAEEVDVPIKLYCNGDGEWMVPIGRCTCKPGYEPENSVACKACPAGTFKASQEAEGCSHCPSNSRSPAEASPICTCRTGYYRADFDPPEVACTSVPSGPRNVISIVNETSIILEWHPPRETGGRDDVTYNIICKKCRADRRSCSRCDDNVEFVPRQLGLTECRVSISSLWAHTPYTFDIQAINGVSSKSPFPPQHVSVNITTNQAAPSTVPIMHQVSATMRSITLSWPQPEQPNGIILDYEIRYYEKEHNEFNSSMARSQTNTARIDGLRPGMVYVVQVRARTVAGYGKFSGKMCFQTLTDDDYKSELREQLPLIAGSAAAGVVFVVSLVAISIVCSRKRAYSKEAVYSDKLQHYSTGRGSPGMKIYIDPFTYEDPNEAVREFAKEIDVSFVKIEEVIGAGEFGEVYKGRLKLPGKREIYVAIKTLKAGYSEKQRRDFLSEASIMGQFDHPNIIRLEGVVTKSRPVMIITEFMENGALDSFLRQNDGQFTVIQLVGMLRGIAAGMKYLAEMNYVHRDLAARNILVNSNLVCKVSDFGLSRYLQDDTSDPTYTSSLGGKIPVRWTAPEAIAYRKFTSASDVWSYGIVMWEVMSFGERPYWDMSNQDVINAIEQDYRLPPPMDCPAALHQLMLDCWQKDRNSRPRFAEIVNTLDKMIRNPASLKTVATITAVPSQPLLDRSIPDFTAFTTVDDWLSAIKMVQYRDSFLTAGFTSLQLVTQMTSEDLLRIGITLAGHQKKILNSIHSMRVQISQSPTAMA

Experiment [2] deals with T2, CLK3 (Homo sapiens, UniProt P49761).
T2 construct: purchased Carna Biosciences
T2 sequence (P49761 whole entry): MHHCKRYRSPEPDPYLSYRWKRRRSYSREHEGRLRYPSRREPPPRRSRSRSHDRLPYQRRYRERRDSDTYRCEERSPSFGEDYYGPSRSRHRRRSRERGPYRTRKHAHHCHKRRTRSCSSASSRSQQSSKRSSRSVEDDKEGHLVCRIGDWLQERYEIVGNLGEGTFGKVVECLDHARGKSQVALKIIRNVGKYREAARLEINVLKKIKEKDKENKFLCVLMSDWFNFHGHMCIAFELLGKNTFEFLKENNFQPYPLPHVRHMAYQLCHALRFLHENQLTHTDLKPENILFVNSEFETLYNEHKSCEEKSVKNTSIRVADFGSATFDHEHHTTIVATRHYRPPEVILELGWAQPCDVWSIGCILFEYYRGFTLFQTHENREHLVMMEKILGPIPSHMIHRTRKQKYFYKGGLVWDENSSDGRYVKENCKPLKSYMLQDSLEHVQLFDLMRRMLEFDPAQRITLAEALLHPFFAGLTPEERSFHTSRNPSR

Experiment [3] deals with T3, DCAMKL2 (Homo sapiens, UniProt Q8N568).
T3 construct: purchased Carna Biosciences
T3 sequence (Q8N568 1-766): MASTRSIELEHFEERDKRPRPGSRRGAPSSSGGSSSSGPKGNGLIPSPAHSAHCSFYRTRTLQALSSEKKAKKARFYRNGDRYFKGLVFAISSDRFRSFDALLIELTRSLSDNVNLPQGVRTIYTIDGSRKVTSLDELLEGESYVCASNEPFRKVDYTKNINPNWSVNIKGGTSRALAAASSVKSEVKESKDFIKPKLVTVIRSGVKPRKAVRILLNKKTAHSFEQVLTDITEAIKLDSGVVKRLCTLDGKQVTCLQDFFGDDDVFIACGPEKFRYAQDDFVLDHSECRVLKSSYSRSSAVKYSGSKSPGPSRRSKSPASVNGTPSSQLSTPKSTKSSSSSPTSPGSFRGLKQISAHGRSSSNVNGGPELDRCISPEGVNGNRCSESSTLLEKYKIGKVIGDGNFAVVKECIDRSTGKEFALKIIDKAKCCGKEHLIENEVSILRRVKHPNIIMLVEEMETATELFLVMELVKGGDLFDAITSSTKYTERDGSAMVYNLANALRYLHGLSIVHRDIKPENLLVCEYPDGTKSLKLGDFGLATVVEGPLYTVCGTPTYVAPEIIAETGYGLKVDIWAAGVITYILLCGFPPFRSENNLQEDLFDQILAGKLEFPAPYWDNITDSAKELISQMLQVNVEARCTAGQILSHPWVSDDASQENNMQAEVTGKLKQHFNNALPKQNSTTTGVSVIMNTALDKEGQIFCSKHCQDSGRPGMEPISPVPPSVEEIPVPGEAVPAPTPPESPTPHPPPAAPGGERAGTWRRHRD

For experiment [4], the target named is T4, JNK2 (Homo sapiens, UniProt P45984).
T4 construct: purchased Carna Biosciences
T4 sequence (P45984 whole entry): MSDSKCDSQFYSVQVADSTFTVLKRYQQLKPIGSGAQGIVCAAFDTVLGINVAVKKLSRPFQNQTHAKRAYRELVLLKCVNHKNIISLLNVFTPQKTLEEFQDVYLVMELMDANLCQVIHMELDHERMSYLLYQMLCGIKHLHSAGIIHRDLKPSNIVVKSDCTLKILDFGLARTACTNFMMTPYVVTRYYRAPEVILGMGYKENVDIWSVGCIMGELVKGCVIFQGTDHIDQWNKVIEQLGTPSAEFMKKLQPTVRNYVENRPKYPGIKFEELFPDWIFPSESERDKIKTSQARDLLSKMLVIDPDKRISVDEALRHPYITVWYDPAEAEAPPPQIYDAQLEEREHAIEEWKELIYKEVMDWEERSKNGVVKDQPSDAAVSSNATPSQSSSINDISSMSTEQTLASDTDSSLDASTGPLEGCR

The target in experiment [5] is T5, MSK1 (Homo sapiens, UniProt O75582).
T5 construct: purchased Carna Biosciences
T5 sequence (O75582 whole entry): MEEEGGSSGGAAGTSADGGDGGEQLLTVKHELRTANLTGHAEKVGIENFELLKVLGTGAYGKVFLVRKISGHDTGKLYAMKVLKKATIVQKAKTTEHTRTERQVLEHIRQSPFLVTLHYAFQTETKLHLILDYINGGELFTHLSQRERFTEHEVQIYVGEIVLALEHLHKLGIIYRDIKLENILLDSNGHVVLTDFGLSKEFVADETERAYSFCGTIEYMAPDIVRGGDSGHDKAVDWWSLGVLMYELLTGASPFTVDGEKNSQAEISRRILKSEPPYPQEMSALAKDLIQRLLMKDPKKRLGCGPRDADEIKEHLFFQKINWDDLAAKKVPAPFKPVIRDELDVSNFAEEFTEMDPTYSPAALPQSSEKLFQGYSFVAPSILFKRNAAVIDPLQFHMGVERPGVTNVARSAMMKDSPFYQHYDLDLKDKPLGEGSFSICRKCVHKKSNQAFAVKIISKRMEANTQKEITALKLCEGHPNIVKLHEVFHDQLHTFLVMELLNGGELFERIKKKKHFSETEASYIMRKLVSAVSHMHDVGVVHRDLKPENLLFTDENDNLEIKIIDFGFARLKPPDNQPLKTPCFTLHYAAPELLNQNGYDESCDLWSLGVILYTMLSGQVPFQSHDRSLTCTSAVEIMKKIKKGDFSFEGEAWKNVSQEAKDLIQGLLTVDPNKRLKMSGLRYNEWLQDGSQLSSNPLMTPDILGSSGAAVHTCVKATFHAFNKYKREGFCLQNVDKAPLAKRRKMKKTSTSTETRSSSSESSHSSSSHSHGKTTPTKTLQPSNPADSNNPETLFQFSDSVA

Experiment [6] has as its target T6, MSK2 (Homo sapiens, UniProt O75676).
T6 construct: purchased Carna Biosciences

The target in experiment [7] is T7, PAK5 (Homo sapiens, UniProt Q9P286).
T7 construct: purchased Carna Biosciences
T7 sequence (Q9P286 whole entry): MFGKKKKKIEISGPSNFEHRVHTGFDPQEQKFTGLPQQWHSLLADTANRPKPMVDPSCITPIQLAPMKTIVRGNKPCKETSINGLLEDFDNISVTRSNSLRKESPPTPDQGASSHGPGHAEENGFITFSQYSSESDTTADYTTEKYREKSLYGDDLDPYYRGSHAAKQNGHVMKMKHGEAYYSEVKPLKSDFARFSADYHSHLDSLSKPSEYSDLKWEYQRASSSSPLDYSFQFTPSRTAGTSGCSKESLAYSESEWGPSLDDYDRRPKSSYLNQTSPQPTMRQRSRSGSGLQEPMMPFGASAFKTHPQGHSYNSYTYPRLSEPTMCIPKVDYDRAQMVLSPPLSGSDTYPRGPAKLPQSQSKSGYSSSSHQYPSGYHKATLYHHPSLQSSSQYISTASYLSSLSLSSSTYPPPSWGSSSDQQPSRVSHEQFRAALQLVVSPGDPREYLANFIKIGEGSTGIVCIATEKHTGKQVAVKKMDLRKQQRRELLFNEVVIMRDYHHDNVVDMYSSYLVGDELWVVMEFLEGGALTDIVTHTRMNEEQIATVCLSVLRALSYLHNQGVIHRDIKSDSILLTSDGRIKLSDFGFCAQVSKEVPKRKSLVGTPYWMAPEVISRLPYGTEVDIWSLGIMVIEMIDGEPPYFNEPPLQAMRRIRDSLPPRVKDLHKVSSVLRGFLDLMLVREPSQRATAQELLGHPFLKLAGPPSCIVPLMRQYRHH

The target of experiment [8] is T8, PBK (Homo sapiens, UniProt Q96KB5).
T8 construct: purchased Carna Biosciences
T8 sequence (Q96KB5 1-322): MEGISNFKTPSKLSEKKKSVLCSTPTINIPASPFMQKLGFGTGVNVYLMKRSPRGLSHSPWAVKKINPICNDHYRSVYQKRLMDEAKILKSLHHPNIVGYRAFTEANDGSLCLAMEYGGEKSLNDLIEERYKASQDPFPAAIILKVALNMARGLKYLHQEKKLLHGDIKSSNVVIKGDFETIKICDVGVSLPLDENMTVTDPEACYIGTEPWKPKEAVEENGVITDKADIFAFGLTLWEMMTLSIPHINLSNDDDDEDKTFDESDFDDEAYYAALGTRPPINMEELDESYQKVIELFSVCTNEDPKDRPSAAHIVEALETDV

T6 sequence (O75676 whole entry): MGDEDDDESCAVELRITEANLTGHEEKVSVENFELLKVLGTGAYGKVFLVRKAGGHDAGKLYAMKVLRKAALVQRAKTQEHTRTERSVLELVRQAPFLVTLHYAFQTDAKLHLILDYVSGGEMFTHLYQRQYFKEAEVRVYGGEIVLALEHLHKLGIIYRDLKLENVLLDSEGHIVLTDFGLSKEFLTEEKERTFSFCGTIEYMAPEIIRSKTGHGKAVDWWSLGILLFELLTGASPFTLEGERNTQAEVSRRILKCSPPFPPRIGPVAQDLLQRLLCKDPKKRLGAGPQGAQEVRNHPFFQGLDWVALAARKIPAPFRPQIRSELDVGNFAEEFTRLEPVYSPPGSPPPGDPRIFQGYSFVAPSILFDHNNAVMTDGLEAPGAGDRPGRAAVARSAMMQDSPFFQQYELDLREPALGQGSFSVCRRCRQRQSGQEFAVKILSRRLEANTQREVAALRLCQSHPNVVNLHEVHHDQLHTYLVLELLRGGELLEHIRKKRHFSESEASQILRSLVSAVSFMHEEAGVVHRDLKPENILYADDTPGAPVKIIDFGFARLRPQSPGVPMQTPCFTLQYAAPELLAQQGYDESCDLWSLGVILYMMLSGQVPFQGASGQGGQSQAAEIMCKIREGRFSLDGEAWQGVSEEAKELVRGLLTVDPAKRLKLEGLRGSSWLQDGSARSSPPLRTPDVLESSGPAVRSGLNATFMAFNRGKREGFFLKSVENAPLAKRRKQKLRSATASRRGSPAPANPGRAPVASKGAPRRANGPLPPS

Regarding `CC#CC(=O)N1CCC[C@H]1c1nc(-c2ccc(C(=O)Nc3ccccn3)cc2)c2c(N)nccn12` [acalabrutinib], the “Percentage inhibition of kinase enzyme activity” value (from here on “Percentage inhibition”) in experiment [1] is reported as -1.40%; in experiment [2], -14.91%; in experiment [3], 4.63%; in experiment [4], -1.85%; in experiment [5], -7.68%; in experiment [6] it was 1.53%. The results for the “Percentage inhibition” value in experiment [7] and in experiment [8] were -0.37% and -15.29%, respectively.
Regarding `C=CC(=O)N1CCC[C@@H](n2nc(-c3ccc(Oc4ccccc4)cc3)c3c(N)ncnc32)C1` [ibrutinib], the “Percentage inhibition” value in experiment [1] is given as 11.81%; in experiment [3] it was -9.45%; in experiment [4], -2.83%; in experiment [5] it was -1.18%; in experiment [6], -2.09%; in experiment [7] it was 12.42%. Besides, the “Percentage inhibition” value in experiment [8] is -9.30%.
In the case of `O=C(c1ccc(Oc2ccccc2)cc1Cl)c1c[nH]c2ncnc(N[C@@H]3CC[C@@H](CO)OC3)c12` [nemtabrutinib], the “Percentage inhibition” value is on record as 63.64% in experiment [1]; -2.19% in experiment [2]; -1.82% in experiment [3]; 4.23% in experiment [4]; 11.30% in experiment [5]; 5.69% in experiment [6]. For the same molecule, the “Percentage inhibition” value is recorded as 66.81% in experiment [7] and -7.49% in experiment [8].
Take `COc1ccc(F)cc1C(=O)NCc1ccc(-c2nn([C@@H](C)C(F)(F)F)c(N)c2C(N)=O)cc1` [pirtobrutinib]: the “Percentage inhibition” value in experiment [1] was found to be 2.51%; in experiment [2], 14.87%; in experiment [3], 0.08%; in experiment [4] it was 7.41%; in experiment [5] it was 4.32%; in experiment [6] it was 1.57%. For the same molecule, the “Percentage inhibition” value in experiment [7] was -1.30%; in experiment [8], -3.79%.
In the case of `C=CC(=O)N1CCC([C@@H]2CCNc3c(C(N)=O)c(-c4ccc(Oc5ccccc5)cc4)nn32)CC1` [zanubrutinib], the “Percentage inhibition” value in experiment [1] is reported as -1.07%; in experiment [5] it was 0.57%.
